In the SangsterLogP compilation:

What was measured:
[1] = not given; remark: listed apart in the source
[2] = not given; remark: listed apart in the source
[3] = method code SF-AS, from DOI: 10.1016/0378-5173(90)90042-3
[4] = method code SF-AS, from DOI: 10.1021/jm00234a001, PMID: 1003419
[5] = method code SF-HPLC, from DOI: 10.1016/0378-5173(87)90096-2; conditions: pH 8.0
[6] = not given; remark: listed apart in the source
[7] = method code SF-AS, from DOI: 10.1021/je700381u; conditions: pH 0.0
[8] = method code SF-AS, from DOI: 10.1021/jf60177a051
[9] = method code SF-AS, from M. Kuchar, J. Tomkova, V. Rejholec, & O. Roubinek. (1992). Some problems of the chromatographic evaluation of lipophicity. In Kuchar, M. (Ed.) QSAR in Design of Bioactive Compounds (pp. 65-81). Prous …; conditions: pH 3.4
[10] = not given; remark: listed apart in the source
[11] = not given; remark: listed apart in the source
[12] = method code SF-AS, from PMID: 8197227; conditions: pH 7.4
[13] = not given; remark: listed apart in the source
[14] = method code SF-C, from DOI: 10.1038/194178b0
[15] = method code SF-GLC, from DOI: 10.1016/s0021-9673(01)83612-8; conditions: pH 13.0
[16] = method code SF-AS, from DOI: 10.1111/j.1476-5381.1975.tb07619.x, PMID: 1182339; conditions: pH 10.0
[17] = method code SF-AS, from DOI: 10.1021/bi00730a008, PMID: 4688860
[18] = method code SF-AS, from DOI: 10.1093/chemse/13.4.619; conditions: pH 7.2
[19] = from Pratesi, P.; Villa, L.; Ferri, V.; DeMicheli, C.; Grana, E.; Grieco, C.; Silipo, C.; Vittoria, A. (1979). On the additive-constitutive properties of substituent hydrophobic parameters in a set of …
[20] = not given; remark: listed apart in the source
[21] = method code SF-AS, from DOI: 10.1080/00021369.1974.10861343; conditions: for logD: pH 3.0
[22] = not given; remark: listed apart in the source
[23] = not given; remark: listed apart in the source
[24] = method code SF-HPLC, from DOI: 10.1002/jps.2600831027, PMID: 7884677; conditions: pH 2.0
[25] = method code SF-AS, from DOI: 10.1002/ps.2780370107; conditions: pH 0.0
[26] = not given; remark: listed apart in the source

`CNc1ccccc1` showed a logP of 1.69.
Compound `COP(=S)(OC)Oc1c(Cl)cc(C)cc1Cl` has a logP [1] of 4.36.
`OCc1ccc(F)cc1` gave a logP of 1.36.
With `O=C(O)c1cccc(Oc2ccccc2)c1` the logP [2] was 3.6.
For `COC(=O)c1cc(=O)[nH]c(=O)[nH]1`, the logP [3] was 0.63.
In the case of `CNC(=O)c1c(I)c(NC(C)=O)c(I)c(O[C@@H]2O[C@H](CO)[C@@H](O)[C@H](O)[C@H]2O)c1I`, the logP [4] is reported as -1.49.
With `NC(=O)Cc1ccncc1` the logD [5] was -0.59.
`O=C(O)c1ccccc1O` showed a logP [6] of 1.75.
`O=C(O)c1cc(F)ccc1Br` showed a logD [7] of 2.21.
Compound `CC1=C(C(=O)Nc2ccccc2)SCCO1` has a logP [8] of 1.73.
Work on `O=C(O)c1ccc(F)c(Br)c1` yielded a logD [7] of 3.56.
With `CC(C)Cc1ccc(CC(=O)O)cc1` the logD [9] was 3.35.
In the case of `c1ccc2c(c1)cc1ccc3cccc4ccc2c1c34`, the logP [6] is reported as 6.57.
`COc1cccc(N)c1` showed a logP [10] of 1.11.
With `Oc1c(I)cc(I)c(O)c1I` the logP [4] was 1.68.
Compound `O=[N+]([O-])c1ccc2cccccc1-2` has a logP [11] of 2.59.
Compound `O=C(NNc1nccs1)c1ccc2c(c1)OCO2` has a logD [12] of 1.06.
In the case of `CC1(C)C(/C=C(\Cl)C(F)(F)F)C1C(=O)OC(C#N)c1cccc(Oc2ccccc2)c1` (stereo unspecified), the logP [13] is reported as 6.02.
For `CCOC(=O)c1cc(=O)[nH]c(=O)[nH]1`, the logP [3] was 0.68.
For `CC(=O)c1cccc(OCC(=O)O)c1`, the logP [14] was 1.34.
Compound `CC(N)CC1CCCCCCC1` (stereo unspecified) has a logD [15] of 3.7.
With `N=C(N)NC(=O)Nc1ccc(Cl)c(Cl)c1` the logD [16] was 2.39.
Work on `O=CNc1ccc([N+](=O)[O-])cc1` yielded a logP [17] of 1.43.
Compound `CC(=O)c1ccncc1` has a logD [18] of 0.4.
With `O=C1OCc2c(Cl)c(Cl)c(Cl)c(Cl)c21` the logP [1] was 3.22.
Work on `N#CCCOc1ccccc1` yielded a logP [19] of 1.61.
Compound `CC(=O)Nc1ccccc1Cl` has a logP of 1.35.
`CCOP(=O)(OCC)O/C(=C/Cl)c1ccc(Cl)cc1Cl` gave a logP [20] of 3.84.
In the case of `COc1ccc(C(O)C(=O)O)cc1` (stereo unspecified), the logD [9] is reported as 0.63.
`O=[N+]([O-])c1ccc(Cc2ccncc2)cc1` showed a logD [18] of 2.73.
Work on `O=C(O)/C=C/Oc1ccccc1` yielded a logD [21] of 2.27.
With `OC[C@H]1O[C@@H](Oc2ccc(I)c(O[C@@H]3O[C@H](CO)[C@@H](O)[C@H](O)[C@H]3O)c2I)[C@H](O)[C@@H](O)[C@@H]1O` the logP [4] was -1.31.
For `COCc1ccc(COC(=O)C2C(C=C(C)C)C2(C)C)cc1` (stereo unspecified), the logP [13] was 4.5.
`CCCN1CCc2cccc(Cl)c2CC1` gave a logP [22] of 3.5.
`CC1=C(C(=O)Nc2ccccc2-c2ccccc2)SCCO1` showed a logP [8] of 2.54.
Compound `COc1cc(NC(=O)NC(=N)N)ccc1C#N` has a logD [16] of 1.28.
With `CCCOC(=O)C=COc1ccccc1` the logP [21] was 3.72.
For `NCCCCc1ccccc1`, the logP [23] was 2.25.
`O=S(=O)(O)c1ccc2ccccc2c1` gave a logP [19] of 1.07.
Work on `O=C(O)Cc1ccc(C(=O)O)cc1` yielded a logD [24] of 1.24.
Work on `CCOP(=O)(O)Cc1ccccc1` yielded a logD [25] of 0.81.
`OCc1ccncc1` gave a logP of -0.04.
`Cc1ccc(CCN)cc1` gave a logP [23] of 1.83.
With `CC(C)CCOC(=O)c1cc(=O)[nH]c(=O)[nH]1` the logP [3] was 1.48.
In the case of `COc1ccc(NC=O)cc1`, the logP [17] is reported as 1.03.
`Cc1csc(NNC(=O)c2ccc3c(c2)OCO3)n1` gave a logD [12] of 1.41.
`Nc1ccc(F)c(Cl)c1` gave a logP [20] of 1.95.
With `CS(=O)(=O)NCCN1CCc2cccc(Cl)c2CC1` the logP [22] was 2.51.
In the case of `CCOC(=O)C=COc1ccccc1`, the logP [21] is reported as 3.18.
Work on `c1ccc(Cc2ccncc2)cc1` yielded a logD [18] of 2.62.
`O=C(O)CCCCCCCOC(=O)Oc1ccccc1` showed a logP [26] of 3.39.
In the case of `NC(=O)Cc1ccccn1`, the logD [5] is reported as -0.64.
`CNS(=O)(=O)c1ccccc1` showed a logP [19] of 0.92.
Compound `NC(=O)Cc1cccnc1` has a logD [5] of -0.59.
`O=C(Nc1ccccc1)N(Cc1ccc(Cl)cc1)C1CCCC1` gave a logP [1] of 4.7.
With `Oc1ccc(C2CCCCC2)cc1` the logP [19] was 4.22.
Compound `COc1cccc(O)c1` has a logP [10] of 1.52.
With `CCOP(=O)(O)Cc1ccc(-c2ccccc2)cc1` the logD [25] was 2.37.
For `CNCCCCc1ccccc1`, the logD [15] was 2.76.
`O=C(c1ccccc1)c1ccncc1` showed a logD [18] of 1.9.
`O=C(O)COC(=O)Oc1ccccc1` gave a logP [26] of 1.72.
For `CC[C@H]1CCC[C@H](O[C@H]2CC[C@H](N(C)C)[C@@H](C)O2)[C@@H](C)C(=O)C2=C[C@@H]3[C@@H](C=C(C)[C@@H]4C[C@@H](O[C@@H]5O[C@@H](C)[C@H](OC)[C@@H](OC)[C@H]5OC)C[C@@H]34)[C@@H]2CC(=O)O1`, the logP [2] was 4.92.
`COCc1ccc(C(=O)O)cc1` gave a logD [24] of 1.76.
In the case of `N=C(N)NC(=O)Nc1cccc([N+](=O)[O-])c1`, the logD [16] is reported as 1.28.
Compound `O=C(O)CCCCCCCCCCCCCCCOC(=O)Oc1ccccc1` has a logP [26] of 4.67.
For `CC1=C(C(=O)O)SCCO1`, the logP [8] was 0.04.
Compound `c1ccc2c(c1)ccc1c3ccccc3ccc21` has a logP [6] of 6.01.
Compound `NC(=O)Cc1ccc2cccccc1-2` has a logP [11] of 2.48.
In the case of `O=C(O)c1cccc(F)c1Cl`, the logD [7] is reported as 1.74.
For `c1cc2cccc3c4cccc5cccc(c(c1)c23)c54`, the logP [6] was 6.53.
`c1ccc2ccccc2c1` showed a logP [20] of 3.43.
In the case of `O=C(O)CCc1ccc(OCc2ccccc2)c(Cl)c1`, the logD [9] is reported as 3.89.
Compound `O=C(O)c1ccc(CO)cc1` has a logD [24] of 0.92.
With `Cc1cccc(OCC(=O)O)c1` the logP [14] was 1.88.
In the case of `OCCCNc1ccccc1`, the logP [23] is reported as 0.57.
Compound `NC(=O)CCCc1ccccn1` has a logD [5] of 0.06.
`COc1ccc(NC(=O)NC(=N)N)cc1` showed a logD [16] of 0.56.
`CCOP(=O)(O)Cc1ccc(S(C)(=O)=O)cc1` showed a logD [25] of -0.4.
With `Cc1ccc(NC=O)cc1` the logP [17] was 1.61.
`CC1=C(C(=O)Nc2ccccc2)S(=O)CCO1` (stereo unspecified) gave a logP [8] of 0.64.
`O=C(O)COc1cccc(C(F)(F)F)c1` gave a logP [14] of 2.52.
`Cc1ccccc1CCN` showed a logP [23] of 1.6.
`O=C(O)COc1ccc(Cl)cc1Cl` showed a logP [2] of 2.71.
For `CC(=O)OC(c1ccc(Cl)c(Cl)c1)C(Cl)(Cl)Cl` (stereo unspecified), the logP [13] was 4.92.
Compound `O=C(O)c1ccccc1C(=O)O` has a logP [2] of 0.87.
For `COc1cccc(NC=O)c1`, the logP [17] was 1.25.
`COCCN1CCc2cccc(Cl)c2CC1` gave a logP [22] of 3.
For `O=C(O)c1ccc2cccccc1-2`, the logD ([11]; pH 3.4) was 2.88.
`Nc1ccccc1[N+](=O)[O-]` gave a logP [10] of 1.62.
Work on `Cc1cc(C)cc(O)c1` yielded a logP [20] of 2.54.
Work on `Cc1cccc(C)c1O` yielded a logP [10] of 2.38.
`CC(=O)Nc1c(I)c(C(=O)N[C@H]2C(O)O[C@H](CO)[C@@H](O)[C@@H]2O)c(I)c(N(C)C(C)=O)c1I` (stereo partly specified) gave a logP [4] of -1.89.
Work on `CCOC(=O)c1ccc2cccccc1-2` yielded a logP [11] of 3.83.
With `NC(=S)NNC(=O)c1ccc2c(c1)OCO2` the logD [12] was 0.21.
With `C(=NNc1nccs1)c1ccc2c(c1)OCO2` the logD [12] was 1.5.
With `O=C(O)c1cc(F)ccc1Cl` the logD [7] was 2.39.
With `CCOP(=O)(O)Cc1ccc(F)cc1` the logD [25] was 1.25.
`CCCCCCOc1ccc(CC(=O)O)cc1` gave a logD [9] of 3.96.
`C#CCc1ccc(COC(=O)C2C(C=C(C)C)C2(C)C)o1` (stereo unspecified) showed a logP [13] of 6.67.
`O=C(O)CCCCCCCCCCCOC(=O)Oc1ccccc1` showed a logP [26] of 4.26.
`Clc1cccc2c1CCNCC2` showed a logP [22] of 2.4.
`O=C(O)c1ccc(CCl)cc1` showed a logD [24] of 2.12.
In the case of `N#Cc1cccc(OCC(=O)O)c1`, the logP [14] is reported as 1.2.
`CCOP(=S)(OCC)Oc1cc(-c2ccccc2)on1` gave a logP [1] of 4.58.
With `CCCCCOC(=O)c1cc(=O)[nH]c(=O)[nH]1` the logP [3] was 1.62.
In the case of `O=C(O)/C=C/Oc1ccccc1Cl`, the logD [21] is reported as 2.69.
